Data reported in article PMC6136712, “Ex vivo drug sensitivity testing as a means for drug repurposing in esophageal adenocarcinoma” (PLoS ONE, 2018).
Structures can show the parent of a compound that is named as a salt.

Experiments:
Type in all cases: cell-based, human
Flo-1 cells = assay: FDA library drug sensitivity testing (CellTiter-Glo, 72 h); conditions: Flo-1; sDSSmod = DSSmod (patient cells) - DSSmod (normal cells)
From the text: (§1) OE33, OE19 and SKGT2 human esophageal adenocarcinoma cell lines were obtained from the European Collection of Cell Culture ([…]). Flo1, EAC42 and EAC47 cells were established in the Capobianco Laboratory. EAC42 and EAC47 human esophageal adenocarcinoma cell lines are derived from patients undergoing surgery at the Miller School of Medicine, University of Miami. The Capobianco laboratory obtained written informed consent from all patients and approval from the Institutional Research Ethics Committee.
(§2) Drug sensitivity testing (DST) was performed as described previously. […] Individual drugs were dissolved in 100% DMSO and tested in duplicates starting at a maximal test concentration of 10μM then over a 20,000-fold concentration range to generate dose response curves. Wells with assay buffer containing DMSO served as negative controls. 1000 exponentially growing cells were seeded per well in 384-well micro-titer plates and incubated in the presence of compounds in a humidified environment at 37°C and 5% CO2. After 72 hours of treatment, cell viability was assessed by measuring ATP levels via bioluminescence (CellTiter-Glo, Promega) according to manufactures recommendations. Interpretation of curve parameters was performed according to the modified drug sensitivity scoring (DSSmod) function developed by Swords et al. As a final step, the selective DSSmod (sDSSmod) for each drug in each patient screen is calculated according to the formula sDSSmod = DSSmod (patient cells)—DSSmod (normal cells). Given in this way, the sDSSmod incorporated information on each drug’s potency, efficacy, effect range and therapeutic index, making it possible to prioritize compounds over multiple parameters using a single numerical metric. In addition, this methodology allows us to rank compounds by cancer-selective efficacy for each individual patient. […] All calculations and scoring routines are implemented in MatLab and additional curve fitting and statistical analyses are performed in GraphPad prism.

EAC47 cells = assay: as above; conditions: EAC47; sDSSmod = DSSmod (patient cells) - DSSmod (normal cells)
From the text: as §1
as §2, with “As a final step, the selective DSSmod (sDSSmod) for each drug in each patient screen is calculated according to the formula sDSSmod = DSSmod (patient cells)—DSSmod (normal cells).” left out, “metric.” for “metric. In addition, this methodology allows us to rank compounds by cancer-selective efficacy for each individual patient.”

EAC42 cells = assay: as above; conditions: EAC42; sDSSmod = DSSmod (patient cells) - DSSmod (normal cells)
From the text: as §1
as §2, with “As a final step, the selective DSSmod (sDSSmod) for each drug in each patient screen is calculated according to the formula sDSSmod = DSSmod (patient cells)—DSSmod (normal cells).” left out, “metric.” for “metric. In addition, this methodology allows us to rank compounds by cancer-selective efficacy for each individual patient.”

OE33 cells = assay: as above; conditions: OE33; sDSSmod = DSSmod (patient cells) - DSSmod (normal cells)
From the text: as §1
as §2, with “As a final step, the selective DSSmod (sDSSmod) for each drug in each patient screen is calculated according to the formula sDSSmod = DSSmod (patient cells)—DSSmod (normal cells).” left out, “metric.” for “metric. In addition, this methodology allows us to rank compounds by cancer-selective efficacy for each individual patient.”

[1] = system: normal esophageal epithelium cell line EACN42; assay: FDA library drug sensitivity testing (CellTiter-Glo, 72 h), normal control cells; design: key to DSS: modified drug sensitivity score (DSSmod) from dose-response curve fit
How it was run: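 HPV E6-E7-immortalized normal human esophageal epithelial cells, 1000 per well, exposed 72 h at 37 °C to drugs in duplicate from 10μM top concentration across a 20,000-fold range. Viability by ATP bioluminescence; DMSO wells as negative control; curves scored with modified drug sensitivity score (DSSmod).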

OE19 cells = assay: FDA library drug sensitivity testing (CellTiter-Glo, 72 h); conditions: sDSSmod = DSSmod (patient cells) - DSSmod (normal cells)
From the text: as §1
as §2, with “As a final step, the selective DSSmod (sDSSmod) for each drug in each patient screen is calculated according to the formula sDSSmod = DSSmod (patient cells)—DSSmod (normal cells).” left out, “metric.” for “metric. In addition, this methodology allows us to rank compounds by cancer-selective efficacy for each individual patient.”

SK-GT2 cells = assay: as above; conditions: SK-GT2; sDSSmod = DSSmod (patient cells) - DSSmod (normal cells)
From the text: as §1
as §2, with “As a final step, the selective DSSmod (sDSSmod) for each drug in each patient screen is calculated according to the formula sDSSmod = DSSmod (patient cells)—DSSmod (normal cells).” left out, “metric.” for “metric. In addition, this methodology allows us to rank compounds by cancer-selective efficacy for each individual patient.”

[2] = drug sensitivity score, EACN42 normal esophageal cells, 72 h
[3] = Homo sapiens, 72 h, EACN42 normal esophageal cells, cell viability (ATP), max test concentration 10μM
[4] = EACN42 normal esophageal cells, 72 h, cell viability (ATP), max test concentration 10μM

Row | SMILES | sDSSmod (Flo-1 cells) | sDSSmod (EAC47 cells) | sDSSmod (EAC42 cells) | sDSSmod (OE33 cells) | DSS [1, 2] | sDSSmod (OE19 cells) | sDSSmod (SK-GT2 cells) | EC50 [1, 3] | EC50 [1, 4] | EC50 ([1]; Homo sapiens; EACN42 normal esophageal cells, 72 h, cell viability (ATP), max test concentration 10μM)
1 | COc1c(C)c2c(c(O)c1C/C=C(\C)CCC(=O)O)C(=O)OC2 [Mycophenolic] | 10.92 | 5.9818 | 8.479 | 16.23 | 2.17 | – | – | – | – | –
2 | CCC(C)(C)C(=O)O[C@H]1C[C@@H](C)C=C2C=C[C@H](C)[C@H](CC[C@@H]3C[C@@H](O)CC(=O)O3)[C@H]21 [Simvastatin] | – | -5.66 | -5.363 | 26.15 | 5.66 | -5.647 | -5.66 | 3.35 µM | – | –
3 | Nc1nc(F)nc2c1ncn2[C@@H]1O[C@H](CO)[C@@H](O)[C@@H]1O [Fludarabine] | – | -42.19 | -42.0707 | -9.248 | 42.19 | -20.7262 | -12.4173 | 0.07 µM | – | –
4 | CC(=O)[C@]1(O)Cc2c(O)c3c(c(O)c2[C@@H](O[C@H]2C[C@H](N)[C@H](O)[C@H](C)O2)C1)C(=O)c1ccccc1C3=O [Idarubicin HCl] | – | – | 6.506 | 15.06 | 26.1 | -22.4296 | -17.1644 | 0.71 µM | – | –
5 | COc1cc([C@@H]2c3cc4c(cc3[C@@H](O[C@@H]3O[C@@H]5CO[C@@H](c6cccs6)O[C@H]5[C@H](O)[C@H]3O)[C@H]3COC(=O)[C@H]23)OCO4)cc(OC)c1O [Teniposide] | 10.22 | – | – | 39.45 | 6.79 | – | – | 5.17 µM | – | –
6 | Cc1ccc(Nc2nccc(N(C)c3ccc4c(C)n(C)nc4c3)n2)cc1S(N)(=O)=O.Cl [Pazopanib HCl] | 8.16 | – | – | 11.37 | 0.07 | – | – | – | – | –
7 | CCc1c2c(nc3ccc(OC(=O)N4CCC(N5CCCCC5)CC4)cc13)-c1cc3c(c(=O)n1C2)COC(=O)[C@]3(O)CC.Cl.O.O.O [Irinotecan HCl Trihydrate] | – | -6.3823 | -6.563 | 12.07 | 13.38 | -12.0524 | -7.5553 | – | 1.57 µM | –
8 | CCc1c2c(nc3ccc(OC(=O)N4CCC(N5CCCCC5)CC4)cc13)-c1cc3c(c(=O)n1C2)COC(=O)[C@]3(O)CC [Irinotecan] | – | -5.5855 | – | 5.246 | 6.99 | -6.34 | -5.574 | 5.11 µM | – | –
9 | CN(Cc1cnc2nc(N)nc(N)c2n1)c1ccc(C(=O)N[C@@H](CCC(=O)O)C(=O)O)cc1 [Abitrexate, Methotrexate] | – | 35.78 | 31.2825 | 16.69 | 21.14 | -21.1435 | – | 0.04 µM | – | –
10 | Nc1nc2[nH]cc(CCc3ccc(C(=O)N[C@@H](CCC(=O)O)C(=O)O)cc3)c2c(=O)[nH]1 [Pemetrexed] | – | 14.75 | 14.62 | 25.32 | 16.15 | -15.3102 | – | 0.06 µM | – | –
11 | C=CC(=O)N1CCC[C@@H](n2nc(-c3ccc(Oc4ccccc4)cc3)c3c(N)ncnc32)C1 [Ibrutinib] | – | – | – | – | 0 | 31.18 | 39.31 | – | – | –
12 | Nc1nc2nc[nH]c2c(=S)[nH]1 [Thioguanine] | – | 8.364 | 9.961 | 42.58 | 4.62 | – | 6.838 | 3.16 µM | – | –
13 | COc1cc2c(Nc3ccc(Br)cc3F)ncnc2cc1OCC1CCN(C)CC1 [Vandetanib] | – | – | – | 8.255 | 0.13 | 7.027 | 7.721 | 4.46 µM | – | –
14 | COc1c(C)c2c(c(O)c1C/C=C(\C)CCC(=O)OCCN1CCOCC1)C(=O)OC2 [Mycophenolate mofetil] | 5.44 | – | 6.417 | 11.03 | 2.66 | – | – | 2.18 µM | – | –
15 | O=P(O)(O)C(O)(Cn1ccnc1)P(=O)(O)O [Zoledronic Acid] | 5.26 | 6.526 | 9.833 | – | 0 | – | – | – | – | –
16 | Nc1ccn([C@@H]2O[C@H](CO)[C@@H](O)C2(F)F)c(=O)n1 [Gemzar] | – | 10.03 | 17.37 | 11.79 | 16.2 | -11.949 | – | – | 0.77 µM | –
17 | Nc1nc(Cl)nc2c1ncn2[C@@H]1O[C@H](CO)[C@@H](O)[C@@H]1F [Clofarabine] | – | -10.1317 | -8.024 | 16.0076 | 19.89 | -19.554 | -9.559 | 0.07 µM | – | –
18 | Cc1ccc(C(=O)Nc2ccc(CN3CCN(C)CC3)c(C(F)(F)F)c2)cc1C#Cc1cnc2cccnn12 [Ponatinib] | – | -11.7731 | -11.7731 | -6.155 | 11.77 | -11.756 | -11.7711 | – | – | 2.81 µM
19 | Cn1cnc([N+](=O)[O-])c1Sc1ncnc2nc[nH]c12 [Azathioprine] | – | 7.783 | 6.181 | – | 0.02 | – | 5.733 | – | – | –
20 | COc1cccc2c1C(=O)c1c(O)c3c(c(O)c1C2=O)C[C@@](O)(C(=O)CO)C[C@@H]3O[C@H]1C[C@H](N)[C@@H](O)[C@H](C)O1 [Epirubicin Hydrochloride] | – | – | – | 6.778 | 18.98 | -11.4055 | -9.535 | 1.2 µM | – | –
